Data on 24 compounds can be found in patent US20120070411A1, “SUBSTITUTED NUCLEOTIDE ANALOGS” (Alios BioPharma, Inc., priority 2010, published 2012).

For this assay, the system named is Huh-7 cells containing the self-replicating, subgenomic HCV replicon. Nature of the assay: HCV replicon assay (luciferase reporter, 72 h). It counts as cell-based. The settings on record: Hepatitis C virus, read-out: HCV Replicon Activity (EC50). The procedure:
Huh-7 cells containing the self-replicating, subgenomic HCV replicon with a stable luciferase (LUC) reporter were cultured in Dulbecco's modified Eagle's medium (DMEM) containing 2 mM L-glutamine and supplemented with 10% heat-inactivated fetal bovine serum (FBS), 1% penicillin-streptomyocin, 1% nonessential amino acids, and 0.5 mg/ml G418.
On the first day, 5,000 HCV replicon cells were plated per well in a 96-well plate. On the following day, test compounds were solubilized in 100% DMSO to 100× the desired final testing concentration. Each compound was then serially diluted (1:3) up to 9 different concentrations. Compounds in 100% DMSO are reduced to 10% DMSO by diluting 1:10 in cell culture media. The compounds were diluted to 10% DMSO with cell culture media, which were used to dose the HCV replicon cells in 96-well format. The final DMSO concentration was 1%. The HCV replicon cells were incubated at 37° C. for 72 hours. At 72 hours, cells were processed when the cells are still subconfluent. Compounds that reduce the LUC signal are determined by Bright-Glo Luciferase Assay (Promega, Madison, Wis.). % Inhibition was determined for each compound concentration in relation to the control cells (untreated HCV replicon) to calculate the EC50.
In general terms: Replicon systems follow genome replication, usually without infectious particles.

Setting [1] is: Table 9, Huh-7 HCV replicon cells, luciferase, 72 hours.

Read-outs that look alike come from different tables or passages of the source. A value given as a limit tells only on which side of the number the result lay.

Broadly, the EC50 is the concentration giving half of the maximal effect.

For `COC(=O)[C@H](C)NP(=O)(Oc1ccccc1)O[C@H](C)[C@H]1O[C@@H](n2cnc3c(N)ncnc32)[C@H](O)[C@@H]1O` (stereo partly drawn), under “Huh-7, 72 h”, the EC50 was < 30 µM. Still for that read-out and setting: as for `COC(=O)[C@H](C)NP(=O)(Oc1ccccc1)O[C@@H](C)[C@H]1O[C@@H](n2cnc3c(N)ncnc32)[C@](C)(O)[C@@H]1O` (stereo partly drawn), the figure is < 1000 µM; as for `CCOC(=O)[C@H](C)NP(=O)(Oc1ccccc1)O[C@@H](C)[C@H]1O[C@@H](n2cnc3c(N)ncnc32)[C@H](O)[C@@H]1O` (stereo partly drawn), < 30 µM. For `CC(O)[C@H]1O[C@@H](n2ccc(N)nc2=O)[C@@H](F)[C@@H]1O` (stereo partly drawn), the EC50 under setting [1] fell in the range of 5 to 30 µM. The same measure, in the same setting: then `C[C@@H](O)[C@H]1O[C@@H](n2ccc(N)nc2=O)C(F)(F)[C@@H]1O`, with < 5 µM; and `C[C@@H](O)[C@H]1O[C@@H](n2cnc3c(N)ncnc32)[C@](C)(O)[C@@H]1O`, with 5 to 30 µM. Still for that read-out and setting: then `C[C@H](O)[C@H]1O[C@@H](n2ccc(N)nc2=O)[C@@H](O)[C@@H]1O`, with 30 to 200 µM. On the same count and under the same terms, then `CC(O)[C@H]1O[C@@H](n2cnc3c(=O)[nH]c(N)nc32)[C@H](O)[C@@H]1O` (stereo partly drawn), with 30 to 200 µM. Regarding `CC(OC(=O)c1ccccc1)[C@H]1O[C@@H](n2ccc(=O)[nH]c2=O)[C@](C)(OC(=O)c2ccccc2)[C@@H]1OC(=O)c1ccccc1` (stereo partly drawn), the EC50 under setting [1] was in the range of 5 to 30 µM. On the same count and under the same terms, as for `C[C@H](O)[C@H]1O[C@@H](n2ccc(N)nc2=O)C(F)(F)[C@@H]1O`, the figure is < 5 µM. On to `COC(=O)[C@H](C)N[P@@](=O)(Oc1ccccc1)O[C@@H](C)[C@H]1O[C@@H](n2cnc3c(N)ncnc32)[C@H](O)[C@@H]1O`, for which, where the note is “Huh-7, 72 h”, the EC50 was < 5 µM. As to `C[C@H](O)[C@H]1O[C@@H](n2ccc(N)nc2=O)[C@H](F)[C@@H]1O`, under setting [1], the EC50 fell in the range of 5 to 30 µM.

Take `CC(=O)Nc1ccn([C@@H]2O[C@H]([C@H](C)OC(C)=O)[C@@H](OC(C)=O)C2(F)F)c(=O)n1`: under setting [1], the EC50 is < 5 µM.

With `CCC(=O)O[C@@H](C)[C@H]1O[C@@H](n2ccc(N)nc2=O)C(F)(F)[C@@H]1O`, the EC50 under setting [1] is < 5 µM.

`CCC(=O)O[C@@H](C)[C@H]1O[C@@H](n2ccc(N)nc2=O)C(F)(F)[C@@H]1OC(=O)CC`: the EC50 under setting [1] was < 5 µM. Still for that read-out and setting: then `CC(=O)O[C@@H](C)[C@H]1O[C@@H](n2ccc(N)nc2=O)C(F)(F)[C@@H]1O`, with < 5 µM; and `CC(=O)O[C@@H](C)[C@H]1O[C@@H](n2ccc(N)nc2=O)C(F)(F)[C@@H]1OC(C)=O`, with < 5 µM. As for `COC(=O)[C@H](C)N[P@](=O)(Oc1ccccc1)O[C@@H](C)[C@H]1O[C@@H](n2cnc3c(N)ncnc32)[C@H](O)[C@@H]1O`, the EC50 (Huh-7, 72 h) was < 5 µM. With `C[C@@H](O)[C@H]1O[C@@H](n2ccc(N)nc2=O)[C@@H](O)[C@@H]1O`, the EC50 under setting [1] was < 5 µM. Regarding `COC(=O)[C@H](C)NP(=O)(Oc1ccccc1)O[C@@H](C)[C@H]1O[C@@H](n2ccc(N)nc2=O)C(F)(F)[C@@H]1O` (mixture of isomers) [C5, 2′-Deoxy-2′,2′-difluoro-5′(S)—C-methylcytidine 5′-[phenyl(methoxy-L-alaninyl)]phosphate], the EC50 (Huh-7, 72 h) is < 1 µM.

`COC(=O)[C@H](C)NP(=O)(Oc1ccccc1)OC(C)[C@H]1O[C@@H](n2ccc(N)nc2=O)[C@@H](F)[C@@H]1O` (mixture of isomers) [C9, 2′-deoxy-2′-C-β-fluoro-5′(R/S)—C-methylcytidine-5′-[phenyl-(methoxy-L-alaninyl)]phosphate]: for the setting “Huh-7, 72 h”, the EC50 is < 100 µM. Same read-out and setting: as for `CC(C)OC(=O)[C@H](C)NP(=O)(Oc1cccc2ccccc12)OC(C)[C@H]1O[C@@H](n2ccc(N)nc2=O)[C@@H](C)[C@@H]1O` (mixture of isomers) [C10, 2′-deoxy-2′-C-β-methyl-5′(R/S)—C-methylcytidine 5′-[1-naphthyl (isopropoxy-L-alaninyl)]phosphate], the figure is < 30 µM; as for `COC(=O)C(C)NP(=O)(Oc1ccccc1)OC(C)[C@H]1O[C@@H](n2ccc(=O)[nH]c2=O)C(C)C1O` (mixture of isomers) [D7], < 30 µM.

As for `C[C@H](NP(=O)(Oc1ccc(F)cc1)O[C@@H](C)[C@H]1O[C@@H](n2cnc3c(N)ncnc32)[C@H](O)[C@@H]1O)C(=O)OC1CCCCC1` (stereo in doubt) [A31], the EC50 (Huh-7, 72 h) was < 1 µM.
